Here are results for 21 compounds from ChEMBL document CHEMBL1201862, “PubChem BioAssay data set” (2004).

For orientation: IC50 means the midpoint of a concentration-inhibition curve. The CC50 is the concentration that lowers cell viability or growth by half. What is called AC50 is the midpoint of the concentration-response curve, whichever way the signal moves. The EC50 is the midpoint of the concentration-response curve.

Assay [1] addresses Eukaryotic translation initiation factor 4E (Mus musculus, UniProt P63073). The assay can be described thus: eIF4E–eIF4G protein interaction inhibitors, dose response, biochemical, TR-FRET (AID 855).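 Further: potency for disrupting eIF4E binding to eIF4GI seen as loss of FRET.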 It counts as functional. For orientation: In TR-FRET formats the signal depends on donor and acceptor labels being close together.
The target of a further assay is T1, Leucine aminopeptidase (Plasmodium falciparum 3D7, UniProt Q8IL11).
T1 sequence (Q8IL11 whole entry): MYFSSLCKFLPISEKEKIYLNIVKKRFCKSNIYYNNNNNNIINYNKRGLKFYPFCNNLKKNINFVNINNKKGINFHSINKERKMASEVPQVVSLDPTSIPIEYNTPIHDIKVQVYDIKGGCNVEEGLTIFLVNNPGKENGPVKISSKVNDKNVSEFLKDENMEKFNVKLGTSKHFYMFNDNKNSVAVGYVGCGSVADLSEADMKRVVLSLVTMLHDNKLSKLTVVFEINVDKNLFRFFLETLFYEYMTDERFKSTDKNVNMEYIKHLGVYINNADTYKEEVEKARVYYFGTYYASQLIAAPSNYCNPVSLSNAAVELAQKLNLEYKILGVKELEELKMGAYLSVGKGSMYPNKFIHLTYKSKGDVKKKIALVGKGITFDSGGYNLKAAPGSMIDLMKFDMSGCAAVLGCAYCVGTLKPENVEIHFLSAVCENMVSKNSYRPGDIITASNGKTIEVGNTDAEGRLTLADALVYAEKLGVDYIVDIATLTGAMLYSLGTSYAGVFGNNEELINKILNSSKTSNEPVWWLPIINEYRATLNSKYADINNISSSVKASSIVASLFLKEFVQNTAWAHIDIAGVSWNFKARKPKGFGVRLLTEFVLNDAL
The assay can be described thus: P. falciparum M17LAP inhibitors, primary screen, biochemical, fluorogenic H-Leu-NHMec substrate, 1536-well (AID 1619). It counts as functional.

Assay [2] is described as follows: cells.
Assay [3] relates to Vero. The assay can be described thus: cells. The assay is classed as functional, cell-based. Conditions: Chlorocebus sabaeus.
Assay [4] is described as follows: HEp-2 cell cytotoxicity, dose response, cytotoxicity control for RSV inhibitor project, HTS (AID 2410). It counts as functional. The settings on record: human respiratory syncytial virus.
The target of assay [5] is T2, Calpain-2 catalytic subunit (Sus scrofa, UniProt P43367).
T2 sequence (P43367 whole entry): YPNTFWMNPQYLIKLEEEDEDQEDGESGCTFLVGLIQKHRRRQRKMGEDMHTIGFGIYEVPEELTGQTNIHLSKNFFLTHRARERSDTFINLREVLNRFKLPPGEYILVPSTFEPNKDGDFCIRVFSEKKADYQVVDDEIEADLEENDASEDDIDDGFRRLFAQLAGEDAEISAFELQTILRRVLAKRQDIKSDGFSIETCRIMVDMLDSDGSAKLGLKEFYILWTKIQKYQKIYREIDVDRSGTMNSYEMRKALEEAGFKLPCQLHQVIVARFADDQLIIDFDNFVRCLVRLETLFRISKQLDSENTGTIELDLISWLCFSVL
The assay can be described thus: pig calpain II inhibitor potency, dose response, biochemical, fluorogenic peptide substrate (AID 1420). The assay is classed as functional.

Assay [6] relates to Vero. The assay can be described thus: cells. It counts as functional. Conditions: Chlorocebus sabaeus.
The target in the next assay is T3, Aminopeptidase N (Plasmodium falciparum FcB1/Columbia, UniProt O96935).
T3 sequence (O96935 whole entry): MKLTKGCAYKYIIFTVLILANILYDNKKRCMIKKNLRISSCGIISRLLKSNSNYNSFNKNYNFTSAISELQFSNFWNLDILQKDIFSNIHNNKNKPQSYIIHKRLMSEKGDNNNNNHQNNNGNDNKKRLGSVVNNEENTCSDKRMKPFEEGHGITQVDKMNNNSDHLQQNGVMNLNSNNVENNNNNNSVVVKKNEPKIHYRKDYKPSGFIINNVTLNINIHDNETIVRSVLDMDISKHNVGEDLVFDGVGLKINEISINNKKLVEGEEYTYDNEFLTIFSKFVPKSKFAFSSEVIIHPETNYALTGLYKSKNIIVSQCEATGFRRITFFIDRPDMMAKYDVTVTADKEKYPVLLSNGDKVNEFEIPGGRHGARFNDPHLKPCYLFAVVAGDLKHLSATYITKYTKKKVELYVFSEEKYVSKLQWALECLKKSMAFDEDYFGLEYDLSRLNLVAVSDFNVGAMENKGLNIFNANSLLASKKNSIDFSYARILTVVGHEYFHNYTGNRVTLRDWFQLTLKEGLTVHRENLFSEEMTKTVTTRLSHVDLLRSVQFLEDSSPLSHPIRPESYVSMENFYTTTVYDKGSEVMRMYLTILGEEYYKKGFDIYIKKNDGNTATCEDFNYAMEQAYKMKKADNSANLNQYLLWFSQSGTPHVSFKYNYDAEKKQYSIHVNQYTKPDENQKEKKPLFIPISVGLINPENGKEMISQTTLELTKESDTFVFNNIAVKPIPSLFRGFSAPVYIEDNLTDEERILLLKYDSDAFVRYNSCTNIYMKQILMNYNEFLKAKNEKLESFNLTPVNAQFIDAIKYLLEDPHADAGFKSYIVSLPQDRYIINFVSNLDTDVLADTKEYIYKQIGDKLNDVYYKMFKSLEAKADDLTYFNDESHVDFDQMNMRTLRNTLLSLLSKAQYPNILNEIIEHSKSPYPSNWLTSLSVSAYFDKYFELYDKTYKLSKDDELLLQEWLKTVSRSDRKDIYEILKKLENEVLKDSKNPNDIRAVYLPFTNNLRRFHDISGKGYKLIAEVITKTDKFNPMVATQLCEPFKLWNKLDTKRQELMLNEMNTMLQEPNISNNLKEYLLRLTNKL
The assay can be described thus: P. falciparum M1AAP inhibitors, biochemical, fluorogenic H-Leu-NHMec substrate, 1536-well (AID 1445). More on the design: species or system Plasmodium falciparum 3D7, 3D7.

A short description of assay [7]: cytotoxicity in HEK-293T cells, dose response, cytotoxicity control for TCR NF-kB inhibitor project, luminescence, T-cell screen hits (AID 489026).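 Further: cells exposed to compound about 14 hours before the viability readout.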 The assay is classed as functional, cell-based.
Assay [8] deals with NAD-dependent protein deacylase sirtuin-5, mitochondrial (Homo sapiens, UniProt Q9NXA8). The assay can be described thus: SIRT5 desuccinylase inhibitors, dose response, biochemical, fluorescence imaging, cherry-pick, set 5 (AID 720591).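 Further: desuccinylation of succinyl peptide AMC substrate read as fluorescence after trypsin release; potency of inhibitors that lower fluorescence and may act on trypsin instead.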
Sequence of NAD-dependent protein deacylase sirtuin-5, mitochondrial (Q9NXA8 whole entry): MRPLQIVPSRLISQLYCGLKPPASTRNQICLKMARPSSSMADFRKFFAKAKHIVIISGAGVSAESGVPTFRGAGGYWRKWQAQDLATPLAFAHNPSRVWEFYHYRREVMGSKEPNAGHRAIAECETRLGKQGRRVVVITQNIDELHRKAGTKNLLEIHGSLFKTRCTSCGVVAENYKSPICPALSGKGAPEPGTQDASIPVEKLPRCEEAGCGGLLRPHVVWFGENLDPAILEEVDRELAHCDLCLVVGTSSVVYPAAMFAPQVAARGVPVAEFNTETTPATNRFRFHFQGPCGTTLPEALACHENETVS
Assay [9] is described as follows: A cytotoxicity screen of small molecule inhibitors of the PhoP region in Salmonella typhi identified in the primary screen. [Related pubchem assays: 1850, 1864, 1985 ]. It counts as functional.
The nature of assay [10]: cells. It counts as functional, cell-based.
The next assay concerns HEK293. The assay can be described thus: inhibitors of LMP1-driven NF-kB reporter, dose response, cell-based, HEK293, luciferase, cherry-pick (AID 588343). It counts as functional. The settings on record: Homo sapiens.
The nature of assay [11]: NIH-3T3 fibroblast cytotoxicity, dose response, cytotoxicity control, cell-based, fluorescence, Alamar Blue, secondary assay (AID 2327).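 Further: NIH-3T3 mouse fibroblasts cultured with fluconazole at 8 µg/mL.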 It counts as functional. A general note: Resazurin is reduced to fluorescent resorufin, in cell work by metabolically active cells.
Assay [12] is described as follows: cells. It counts as functional, cell-based. The source holds these as a separate data set.
A short description of assay [13]: C. albicans growth with fluconazole, confirmation, fluorescence, retest (AID 2467). The assay is classed as functional, cell-based.
A further assay concerns INS1. The assay can be described thus: beta cell apoptosis inhibitors, cytokine rescue, dose response, luminescence, retest (AID 449756).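 Further: cell death triggered by IL-1 beta plus TNF-alpha plus IFN-gamma mixture; protective hits raise ATP signal compared with cytokine alone wells.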 The assay is classed as functional, cell-based. Conditions: Rattus norvegicus.
Assay [14] is described as follows: NIH:OVCAR-3 ovarian cancer cell cytotoxicity, dose response, PAX8 inhibitor project, plate reader, dry powder samples (AID 743044). The assay is classed as functional, cell-based.
A short description of assay [15]: cytotoxicity in OVCAR8 ovarian cancer cells, dose response, PAX8 project, cell-based, plate reader, dry powder samples (AID 743197). The assay is classed as functional. The settings on record: OVCAR-8.
The next assay has as its target Paired box protein Pax-8 (Homo sapiens, UniProt Q06710). The assay can be described thus: inhibitors of PAX8-driven TPO luciferase reporter, dose response, RMG-I cells, cherry-pick (AID 687027).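 Further: luciferase reporter driven by Pax8 target thyroperoxidase promoter measured by SteadyGlo luminescence.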 The assay is classed as functional, cell-based. Background: Reporter assays use an easily measured gene product as a stand-in for the process of interest.

Calls of active or inactive are those of the source.

Sequence of Eukaryotic translation initiation factor 4E (P63073 whole entry): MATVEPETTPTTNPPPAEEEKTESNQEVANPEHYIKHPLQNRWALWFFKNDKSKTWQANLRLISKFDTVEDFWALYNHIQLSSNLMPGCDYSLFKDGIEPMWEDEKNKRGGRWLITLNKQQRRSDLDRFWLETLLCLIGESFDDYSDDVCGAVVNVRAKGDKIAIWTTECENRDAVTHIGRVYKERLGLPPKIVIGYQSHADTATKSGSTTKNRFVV
Sequence of Paired box protein Pax-8 (Q06710 whole entry): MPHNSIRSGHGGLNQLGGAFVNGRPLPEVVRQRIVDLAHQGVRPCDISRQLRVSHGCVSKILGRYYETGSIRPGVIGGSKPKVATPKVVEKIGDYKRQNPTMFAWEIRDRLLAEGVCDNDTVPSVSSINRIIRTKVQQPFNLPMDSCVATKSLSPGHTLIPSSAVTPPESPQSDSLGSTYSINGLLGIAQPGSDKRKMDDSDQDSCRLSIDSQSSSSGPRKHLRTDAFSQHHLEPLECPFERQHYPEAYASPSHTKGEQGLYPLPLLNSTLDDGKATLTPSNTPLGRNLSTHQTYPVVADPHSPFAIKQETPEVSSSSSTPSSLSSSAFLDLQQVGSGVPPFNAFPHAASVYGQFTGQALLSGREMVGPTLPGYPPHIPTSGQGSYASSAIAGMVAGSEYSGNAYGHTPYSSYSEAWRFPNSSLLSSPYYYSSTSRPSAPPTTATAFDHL

`COc1cc(-c2[nH]ncc2CN2CCN(Cc3cccs3)CC2)cc(OC)c1OC`: the IC50 in [1] is 50 µM (inactive).
Regarding `Cc1ccc(C(C)C)c(OCc2nc(-c3nonc3N)no2)c1`, the IC50 in assay [1] is > 64 µM (inactive).
In the case of `O=C(CSc1nnc[nH]1)Nc1ccc2c(c1)OCCO2`, on Leucine aminopeptidase, the concentration for half-maximal inhibition (IC50) is 64.9 µM (active).
`CCOC(=O)Cn1c(-c2nonc2NC(=O)c2ccccc2F)nc2ccccc21`: the IC50 in the assay “cells [2]” was 4.57 µM (active); in the assay with Vero [3] it was 0.98 µM (active). Also, the CC50 in [4] is > 6.25 µM (active).
For the compound `CC(C)N(C(=O)c1sc2cc([N+](=O)[O-])ccc2c1Cl)C(C)C`, in assay [5], the IC50 is 1.98 µM (not active).
As for `Cc1cnc(NC(=O)COc2cccc3c2OC(C)(C)C3)s1`, the IC50 was 22.2 µM (active) in the assay “cells [2]” and 13 µM (active) with Vero [3]. Besides, the results for the half-maximal cytotoxic concentration (CC50) (in the assay with Vero [6]; in [4]) were > 25 µM (active) and 30.2 µM (active), respectively.
On to `CC(=O)c1cccc(NC(=O)c2nc(-c3ccccc3)oc2C)c1`, for which the IC50 in assay [1] is 50 µM (inactive).
For the compound `O=C(O)Cn1cc(/C=C2/SC(=O)N(CC(=O)N3CCCCCC3)C2=O)c2ccccc21`, at Aminopeptidase N, the half-inhibitory concentration (IC50) is 82.3 µM (active).
As to `Cc1cccc(C)c1NC(=O)CSc1ncnc2nc[nH]c12`, on Leucine aminopeptidase, the half-maximal inhibitory concentration (IC50) was 39.9 µM (active).
For the compound `Cc1c(Cl)cccc1NC(=O)CCC(=O)NNC(=O)c1ccccc1Cl`, in assay [1], the IC50 was > 64 µM (inactive).
On to `CCn1ncc(C2=NOC(C(=O)NCc3ccc(Cl)cc3)C2)c1C` (configuration not stated), for which the IC50 in [7] was > 80 µM (inactive).
For `CC1=C(c2ccccc2)SC2=NCCN21`, the AC50 in assay [8] is > 30 µM (inactive). Further, the 50% effective concentration (EC50) in [9] was > 50 µM (active).
Regarding `CC1CC(=O)N(CC(=O)Nc2ccc3c(c2)OCO3)c2ccccc2S1` (configuration not stated), the IC50 on Leucine aminopeptidase is 21.9 µM (active).
Still for that read-out and setting: in the case of `COc1ccccc1N1CCN(C(=O)CSc2nc(-c3ccccc3)cc(=O)[nH]2)CC1` it was 16 µM (active).
On to `Cc1ccc(C(C(=O)NC2CCCC2)N(C(=O)Cc2cccs2)c2ccc(C)c(C)c2)o1` (configuration not stated), for which, in assay [5], the half-maximal inhibitory concentration (IC50) is reported as 10.9 µM (not active).
As for `COc1cccc(/C=N/NC(=O)c2[nH]nc3c2CCc2ccccc2-3)c1O`, the concentration for a half-maximal effect (EC50) was > 350 µM (not active) in the assay “cells [10]”, 9.81 µM (active) in [11], 9.85 µM (active) in “cells [12]” and 1.49 µM (active) in assay [13]. Moreover, the AC50 in the assay with HEK293 is 5.71 µM (active); with INS1, 0.796 µM (active). Besides, the IC50 in [7] is 54 µM (inactive).
For `Nc1nc(O)c2ncn([C@@H]3O[C@H](CNCc4ccc(OCCCN5CCOCC5)cc4)[C@@H](O)[C@H]3O)c2n1`, the AC50 in assay [8] was > 30 µM (inactive).
`C=CCNC(=S)N/N=C/c1ccc(C(C)(C)C)cc1`: the concentration for half-maximal inhibition (IC50) in assay [5] is 10.9 µM (not active).
As for `Cc1cc(Br)c(NC(=O)COC(=O)CC2CC3CCC2C3)c(Br)c1` (configuration not stated), the half-maximal activity concentration (AC50) in [8] was 21.8 µM (active).
`C[C@@H]1CCCCO[C@@H](CN(C)S(=O)(=O)c2ccc(F)cc2)[C@H](C)CN([C@H](C)CO)C(=O)c2cc(NS(=O)(=O)c3ccc(Cl)cc3)ccc2O1`: the half-maximal activity concentration (AC50) in assay [14] was 48.9 µM (active); in assay [15] it was > 70 µM (inactive); on Paired box protein Pax-8, 5.05 µM (active).
For the compound `C[C@H](CO)N1C[C@H](C)[C@H](CN(C)S(=O)(=O)c2ccc(Cl)cc2)OCCCC[C@H](C)Oc2ccc(NS(=O)(=O)c3ccc(Cl)cc3)cc2C1=O`, the AC50 in [14] was 34.3 µM (active); in assay [15], 58.9 µM (active); on Paired box protein Pax-8, 5.86 µM (active).
